In PubChem BioAssay (NCI) one finds TGI and GI50 data, which are given here for 29 compounds.

What all share (assay): DTP human tumour cell line panel, 48 h
The test system of assay [1] is UACC-257 melanoma.
Assay [2] has as its system NCI-H460 lung.
Assay [3] deals with SR leukemia.
In assay [4] the test system is T-47D breast.
For assay [5], the system named is MDA-N.
For assay [6], the system named is EKVX NSCLC.
Assay [7] concerns SF-539 CNS.
Assay [8] has as its system COLO 205 colon.
For assay [9], the system named is NCI-H522 lung.
The test system of assay [10] is SW-620 colon.

Each structure is given as a SMILES string.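 Method: 48-hour compound exposure of cells in 96-well plates, five concentrations, linear interpolation of endpoints. Here, GI50 denotes the concentration required for 50% inhibition of growth. TGI marks complete inhibition of growth.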 Where a SMILES comes first, the peptide text is derived from it. [ ]: non-standard residue; d: D form. The star is where a group is joined. Bn2Val = CC(C)[C@@H](C(=O)*)N(Cc1ccccc1)Cc1ccccc1; NH(4-Cl-benzyl) = Clc1ccc(CN*)cc1; NMeV = CN[C@H](C(=O)O)C(C)C; dNMeA = CN[C@H](C)C(=O)O

Regarding `Cc1c(C(=O)OCc2ccccc2)[n+](=O)c2cc(Cl)c(Cl)cc2n1[O-]`, the TGI in assay [1] turned out to be 29.6 µM; in [2], 30.7 µM; in assay [3] it was 21.4 µM; in assay [4], 23.6 µM; in assay [5] it was 40.7 µM; in assay [6], 28.6 µM. Also, the results for the TGI in [7] and in assay [8] were 55.9 µM and 32.2 µM, respectively.
Consider `O=c1c(-c2ccccc2)c(SCCO)n(-c2ccccc2)c(=S)n1-c1ccccc1`, for which the TGI in assay [1], in [2], in [3], in assay [5], in assay [9] and in assay [6] was over 100 µM each time. Further, the TGI in [8] and in assay [10] was over 100 µM each time.
`O=C1NC(=O)C(C(CC(=O)c2ccc(Cl)cc2)c2ccc(Cl)cc2)C(=O)N1` (stereo not given): the TGI in assay [1], in assay [2], in assay [3], in [5], in assay [9] and in assay [6] was over 100 µM in each case. Moreover, the TGI in assay [7] and in [10] was over 100 µM throughout.
With `C/C(=N\Nc1nc2cc(C(F)(F)F)ccc2s1)c1ccccn1`, the TGI in assay [1] is over 31.2 µM; in assay [2], 22.3 µM; in assay [4], 15.4 µM; in [5], 14.7 µM; in assay [9], 4.96 µM; in [6], 5.55 µM. The TGI in assay [7] came out at 14.3 µM; in assay [8], 7.01 µM; in [10] it was 7.65 µM.
For the compound `CCOP(=O)(O)CN1CCNCCN(CP(=O)(O)OCC)CCNCC1`, the TGI in assay [1], in assay [2], in assay [4], in assay [5], in [9] and in assay [6] was over 100 µM throughout. Further, the TGI in assay [7], in assay [8] and in [10] was over 100 µM throughout.
Turning to `Cc1cc(C)c2c(c1)C(=O)/C(=C/c1ccccc1C(=O)O)C2`, the TGI in assay [1], in [2], in [3], in assay [4], in assay [5] and in [9] was over 100 µM throughout. Besides, the TGI is over 100 µM in [6], 89.3 µM in [7] and over 100 µM in [10].
Consider `COc1ccc2cc(CNCCCCCCNCc3ccc4cc(OC)ccc4c3)ccc2c1`, for which the TGI in [1] was determined as 3.34 µM; in assay [2], 0.94 µM; in assay [4], 2.07 µM; in [5] it was 0.36 µM; in assay [9], 1.76 µM; in assay [6], 2.74 µM. The TGI in assay [7] was determined as 3.05 µM; in assay [8], 0.291 µM; in assay [10] it was 0.351 µM.
Take `C/C(=N\Nc1nc2ccccc2n1C)c1cc2ccccc2cn1`: the TGI was 7.26 µM in [1]; 7.05 µM in [2]; over 100 µM in assay [3]; 5.66 µM in assay [4]; 16.6 µM in [5]; 4.67 µM in [9]. The figures for the TGI in assay [6], in assay [7] and in assay [10] were 5 µM, 14.5 µM and 11.3 µM, respectively.
As for `C#CCn1c(=O)c(C)cn(/C(=C\C(=O)OCC)C(=O)OCC)c1=O`, the TGI in [1] was 28.2 µM; in assay [2], 8.06 µM; in assay [3], over 27.6 µM; in [4], 5.95 µM; in assay [5], 22.2 µM; in assay [6] it was 30.1 µM. Also, the TGI was 4.25 µM in assay [7], 3.12 µM in assay [8] and over 100 µM in [10]. Further, the results for the GI50 in assay [8] and in assay [10] were 1.52 µM and 2.14 µM, respectively.
For `O=C1CC(=O)n2cnc3cccc(c32)N1`, the TGI in assay [1], in [2], in assay [3], in [4], in assay [5] and in assay [6] was over 100 µM each time. Moreover, the TGI in assay [7], in [8] and in assay [10] was over 100 µM throughout.
Take `CCCCCCCCCCCCCCCCCCNc1nc(=O)n(C2CC(O)C(COP(=O)(O)O)O2)cc1F` (stereo not given): the TGI in assay [1], in assay [2], in assay [4], in assay [5], in [9] and in [6] was over 100 µM throughout. Besides, the TGI in assay [7], in assay [8] and in [10] was over 100 µM in each case.
Regarding `C/C(=N\NC(=S)N(C)C)c1cccnn1`, the TGI in assay [1] was 2.98 µM; in assay [3], over 20.3 µM; in assay [4], over 100 µM; in [5] it was over 74.2 µM; in assay [9] it was over 100 µM; in [6] it was 10.4 µM. The results for the TGI in assay [7], in assay [8] and in assay [10] were 1.65 µM, over 100 µM and over 100 µM, respectively.
With `C=C(C)[C@H]1C2=CC(C)=C(O2)[C@@H](O[C@@H]2c3oc(cc3C)[C@H](C(=C)C)[C@H]3C=C(CC[C@H]2C(=C)C)C(=O)O3)[C@H](C(=C)C)CCC2=C[C@H]1OC2=O`, the TGI in assay [1], in assay [2], in assay [3], in assay [4], in [5] and in assay [9] was over 100 µM each time. Besides, the TGI in assay [6], in assay [8] and in assay [10] was over 100 µM each time.
Take `O=C(N/N=C/C=C/c1ccccc1)c1ccccc1Nc1ccccc1C(=O)N/N=C/C=C/c1ccccc1`: the TGI in assay [1], in [2], in [3], in assay [4], in [5] and in assay [6] was over 100 µM throughout. In addition, the TGI in [8] and in [10] was over 100 µM each time.
Regarding `N#Cc1cc2c(n(C3OC(CO)C(O)C(O)C3O)c1=S)CCCCCC2` (stereo not given), the TGI in [1], in assay [2], in assay [3], in [4], in assay [5] and in [9] was over 100 µM throughout. For the same compound, the total growth inhibition concentration (TGI) in [7], in assay [8] and in [10] was over 100 µM throughout.
Turning to `C=C=C(CC(CC(=C)Br)(C(=O)OC)C(=O)OC)S(=O)(=O)c1ccccc1`, the TGI in [1] is 5.88 µM; in [2], 20.7 µM; in [4], over 100 µM; in [5], 8.58 µM; in assay [9], 1.76 µM; in [6], 10.8 µM. Also, the figures for the TGI in assay [7], in assay [8] and in assay [10] were 3.33 µM, 3.26 µM and 2.99 µM, respectively.
With `c1ccc(/C(=N/Nc2ccncn2)c2ccccn2)cc1`, the TGI was over 100 µM in [1]; over 100 µM in assay [2]; over 100 µM in assay [3]; over 100 µM in assay [5]; 4.14 µM in assay [9]; 50.3 µM in assay [6]. Also, the TGI in assay [7] and in assay [10] was over 100 µM each time.
On to `Cc1ccc(S(=O)CC(CF)OCn2cc(C)c(=O)[nH]c2=O)cc1` (stereo not given), for which the TGI in assay [2], in assay [3], in assay [4], in assay [5], in assay [9] and in assay [7] was over 100 µM throughout. Also, the TGI in [8] and in assay [10] was over 100 µM each time.
With `CC(C)/C(Cl)=N\OC(NC(=O)P(=O)(c1ccccc1)c1ccccc1)(C(F)(F)F)C(F)(F)F`, the concentration for total growth inhibition (TGI) in assay [1] is 42.2 µM; in [2], 53.7 µM; in [3] it was 59 µM; in [4], over 100 µM; in assay [5], 63.8 µM; in [6], 63.2 µM. For the same compound, the TGI in assay [7] is 27.6 µM; in [8], 26.5 µM; in assay [10], 53.9 µM.
Take `C=CCOn1c(C=C)nc2ccc(C)cc21`: the TGI in assay [1] amounted to 32.3 µM; in assay [2], 32.8 µM; in [3] it was 33.4 µM; in [4], 43.5 µM; in assay [5], 35.7 µM; in assay [9], 32.9 µM. Moreover, the results for the TGI in assay [6], in [8] and in [10] were 37.8 µM, 26.9 µM and 40.8 µM, respectively.
In the case of `O=c1[nH]n(Cc2ccccc2)c2ccc([N+](=O)[O-])cc12`, the TGI in [1] was over 100 µM; in assay [2], over 100 µM; in assay [3] it was over 100 µM; in [5], 99.6 µM; in assay [9], over 100 µM; in [6], over 100 µM. For the same compound, the TGI in assay [7], in [8] and in assay [10] was over 100 µM throughout.
Consider `Cc1cc2c([nH]c3ccccc32)c(O)c1-c1c(C)cc2c([nH]c3ccccc32)c1O`, for which the TGI in [1] is 30.9 µM; in assay [2], 16.7 µM; in assay [3], 16 µM; in assay [4], 31.3 µM; in assay [5], 27.8 µM; in [9], 31.5 µM. Also, the TGI in [6] was 27.7 µM; in [7] it was 31.7 µM; in assay [10], 50.8 µM. Also, the values for the GI50 in assay [3] and in assay [5] were 3.16 µM and 14.7 µM, respectively.
On to `CN(Cc1cnc2nc(N)nc(N)c2n1)c1ccc(C(=O)NC(CO)CCCO)cc1` (stereo not given), for which the TGI in assay [1], in assay [2], in [3], in [4], in [5] and in [6] was over 100 µM each time. Moreover, the TGI in [7], in assay [8] and in assay [10] was over 100 µM each time.
Take `COC[C@@H](N=Cc1ccc([N+](=O)[O-])cc1)C(C)C`: the TGI in [1], in [2], in [3], in [5], in assay [9] and in assay [6] was over 100 µM throughout. The TGI in assay [10] is over 100 µM.
With `C=CCC1C(O[Si](C)(C)C(C)(C)C)C(CO[Si](C)(C)C(C)(C)C)OC1n1ccc(=O)[nH]c1=O` (stereo not given), the TGI in assay [1] was found to be 3.37 µM; in [2], 2.93 µM; in assay [3], 18.4 µM; in [4], 4.37 µM; in assay [5], 2.89 µM; in assay [6], 2.79 µM. The TGI in assay [7] turned out to be 3.03 µM; in assay [8], 3.13 µM; in assay [10] it was 2.84 µM.
With `CCOC(=O)Nn1c(CC#N)nnc1Cc1ccccc1`, the TGI in assay [1], in assay [2], in assay [3], in assay [4], in assay [5] and in assay [9] was over 100 µM each time. Moreover, the TGI in [7] and in assay [10] was over 100 µM throughout.
For the compound `COc1ccc(C(SC2C(O)C(CO)OC2n2ccc(=O)[nH]c2=O)(c2ccccc2)c2ccc(OC)cc2)cc1` (stereo not given), the TGI stood at 33.5 µM in assay [1]; 26 µM in [2]; 48.7 µM in assay [4]; 26.1 µM in assay [5]; 31.9 µM in assay [9]; 41.8 µM in assay [6]. The TGI in assay [7] was 39.2 µM; in assay [8], 34.9 µM; in assay [10], 63.6 µM.
Turning to `CC(C)(C)OC(=O)NCC(CNC(=O)OC(C)(C)C)c1nc(C(N)=O)cs1`, the TGI in assay [1], in [2], in [3], in assay [5], in [6] and in assay [7] was over 100 µM in each case. The TGI in assay [8] and in [10] was over 100 µM throughout.
Turning to `CC(C)[C@H](NC(=O)[C@H](C(C)C)N(Cc1ccccc1)Cc1ccccc1)C(=O)N(C)[C@H](C(=O)N1CCC[C@H]1C(=O)N(C)[C@H](C)C(=O)NCc1ccc(Cl)cc1)C(C)C` (Bn2Val-V[NMeV]P[dNMeA]-{NH(4-Cl-benzyl)}), the TGI in assay [1] is over 100 µM; in [2], over 100 µM; in assay [3], over 100 µM; in assay [4] it was over 100 µM; in assay [5], 30.9 µM; in assay [9] it was 4.97 µM. The results for the TGI in assay [6], in assay [7] and in [10] were 34 µM, 62.3 µM and over 100 µM, respectively.

The term TGI denotes the concentration giving total growth inhibition. A higher TGI goes with lower sensitivity of the cells. In general, GI50 refers to the concentration giving 50% growth inhibition.
